Test results from patent publication EP4775567A1, “IONIZABLE CATIONIC LIPID COMPOUNDS AS WELL AS PREPARATION METHOD THEREFOR AND USE THEREOF” (Scindy Pharmaceutical (Suzhou) Co., Ltd, priority 2023, dated 2025).

Key:
[1] = Particle size and polydispersity index (PDI) by dynamic light scattering; assay type: physicochemical; details: luciferase mRNA lipid nanoparticles prepared from the compound; 25°C
Protocol: (§1) Luciferase mRNA was diluted in a 10-100 mM sodium citrate buffer solution at pH 4.0, with the concentration of the mRNA solution being 135 µg/ml. A mixed lipid ethanol solution was prepared at a molar ratio of ionizable cationic lipid compound (each exemplary compound) : DSPC: cholesterol : 2-[(polyethylene glycol)-2000]-N,N-ditetradecylacetamide (ALC-0159) of 50:10:38.5:1.5. The mRNA solution and the mixed lipid solution were mixed at a volume ratio of 3:1 in a nanodrug preparation device, followed by ultrafiltration to obtain luciferase mRNA lipid nanoparticles.
(§2) • 1. Determination of particle size and polydispersity index (PDI): The average particle size and PDI of the nanoparticle sample solutions in the examples were determined by dynamic light scattering using Malvern ZetaSizer Nano ZS90. The measurement angle was 90°, the refractive index of the dispersant was 1.330, and the test temperature was 25°C. • 2. Zeta potential: The Zeta potential of the nanoparticle sample solutions in the examples was determined by electrophoretic light scattering (ELS) using Malvern ZetaSizer Nano ZS90. Refractive index of the dispersant: 1.330, Test temperature: 25°C. • 3. Encapsulation Rate: The Encapsulation Rate of luciferase mRNA in lipid nanoparticles was determined using a Quant-it Ribogreen RNA quantitation kit (ThermoFisher Scientific, UK) in accordance with the manufacturer's instructions.

[2] = Zeta potential by electrophoretic light scattering; assay type: physicochemical; details: luciferase mRNA lipid nanoparticles prepared from the compound; 25°C
Protocol: as §1, §2

[3] = Encapsulation Rate of luciferase mRNA in lipid nanoparticles (Quant-it Ribogreen RNA kit); assay type: physicochemical; details: luciferase mRNA in lipid nanoparticles prepared from the compound
Protocol: as §1, §2

HEK 293T cells = assay: In vitro transfection efficiency of luciferase mRNA lipid nanoparticles (luciferase activity); assay type: cell-based; details: 100 ng dose, 96-well plate, 24 h incubation; luciferase mRNA lipid nanoparticles
Protocol: as §1
HEK-293T cells were used to evaluate the in vitro transfection efficiency of lipid nanoparticle compositions prepared from each exemplary compound. HEK293T cells were routinely cultured in DMEM + 10% FBS medium to ensure the cells were in the logarithmic growth phase. One day before transfection, the cells were seeded into a 96-well culture plate at an appropriate cell density and grown overnight. At the time of transfection, the cell confluency needed to reach 70-90%. The lipid nanoparticle compositions prepared from each exemplary compound were diluted into 4 different dose concentrations with DMEM and added to the 96-well cell culture plate, resulting in final concentrations of 400 ng, 200 ng, 100 ng and 50 ng per well, respectively. luciferase plasmid transfected using Lipofectamine 2000 was used as the positive control (PC). After incubation for 24 h in a 5% CO2 incubator at 37°C, the substrate was added to the wells, and the luciferase activity was determined using a microplate reader. […] The luciferase activity of the luciferase mRNA lipid nanoparticles prepared from Compound 1005 in HEK293T cells is shown in Fig. 1.

female Balb/c mice = assay: In vivo transfection efficiency and safety of luciferase mRNA lipid nanoparticles (whole-body live imaging); details: tail vein injection, single dose 0.3 mpk, 6 h after administration
Protocol: as §1
6-8 week-old female Balb/c mice were used to evaluate the in vivo transfection efficiency and safety of lipid nanoparticle compositions prepared from each exemplary compound. The lipid nanoparticles prepared from each exemplary compound were administered by tail vein injection at a single dose of 0.3 mpk. At specific time points after administration (e.g., 3 h, 6 h), live imaging of the animals was performed using a PerkinElmer small animal imaging system to determine the bioluminescent signal. The whole-body live imaging of mice at 3 h/6 h after intravenous administration of luciferase mRNA lipid nanoparticles prepared from Compound 1008 is shown in Fig. 2. […] Table 3 Summary of in vitro/in vivo Activity Evaluation of Lipid Nanoparticles Prepared from Compounds

[4] = Apparent pKa of blank lipid nanoparticles by TNS fluorescence; assay type: physicochemical; details: compound:DSPC:cholesterol:ALC-0159 50:10:38.5:1.5, pH 2 to 11
Protocol: The apparent pKa of lipid nanoparticles is correlated with the efficacy of lipid nanoparticles in delivering nucleic acids (see Jayaraman et al., Angewandte Chemie, International Edition (2012), 51(34), 8529-8533; Semple et al., Nature Biotechnology 28, 172-176 (2010)). The apparent pKa of nanoparticles prepared from different lipid compounds was determined using fluorescence based on 2-(p-toluidino)-6-naphthalenesulfonic acid (TNS). The fluorescent probe has no fluorescence in water but […] emits fluorescence when bound to lipid membranes. Blank lipid nanoparticles were prepared at a molar ratio of ionizable cationic lipid compound (each exemplary compound) : DSPC : cholesterol : 2-[(polyethylene glycol)-2000]-N,N-ditetradecylacetamide (ALC-0159) of 50:10:38.5:1.5. They were diluted in different pH buffer solutions having a pH ranging from 2 to 11. An aqueous TNS solution was added and mixed. Then, the mixtures were added to a 96-well plate (black bottom), respectively. Detection was performed with excitation wavelength at 325 nm and the emission wavelength at 435 nm, with top detection. Measurement was performed 10 times for each well, and the fluorescence intensity was recorded. A pH-fluorescence intensity curve was plotted to determine the apparent pKa.

Particle Size [1]	Polydispersity Index (PDI) [1]	Zeta Potential [2]	Encapsulation Rate [3]	Apparent pKa [4]	Compound	HEK 293T Cell Luciferase Activity (HEK 293T cells)	Mouse Whole-Body Average Fluorescence Signal (female Balb/c mice)
85.51 nm	0.104	2.23 mV	95.5%	–	CCCCCCCCCCCCCCCC(CC)C(=O)OCC(COC(=O)C(CC)CCCCCCCCCCCCCCC)(COC(=O)C(CC)CCCCCCCCCCCCCCC)NCCCCCCN(C)CCCCO (stereo not drawn) [Compound 3426]	3.01×10^5 RLU	5.67×10^6 p/s/cm^2/sr
77.74 nm	0.072	2.84 mV	64.5%	–	CCCCCCCCCCCCCCCC(CC)C(=O)OCC(COC(=O)C(CC)CCCCCCCCCCCCCCC)(COC(=O)C(CC)CCCCCCCCCCCCCCC)NCCC(=O)NCCN(C)CCO (stereo not drawn) [Compound 1025]	–	4.20×10^5 p/s/cm^2/sr
70.81 nm	0.126	3.8 mV	96.1%	–	CCCCCCCCCCCCCCCC(CC)C(=O)OCC(COC(=O)C(CC)CCCCCCCCCCCCCCC)(COC(=O)C(CC)CCCCCCCCCCCCCCC)NC(=O)CNCCN(C)CCCCO (stereo not drawn) [Compound 3427]	5.18×10^5 RLU	8.24×10^6 p/s/cm^2/sr
85.78 nm	0.068	-4.98 mV	95.9%	5.13	CCCCCCCCCCCC(CCCCCC)C(=O)OCC(COC(=O)C(CCCCCC)CCCCCCCCCCC)(COC(=O)C(CCCCCC)CCCCCCCCCCC)NCCC(=O)NCCN(C)C (stereo not drawn) [Compound 1007]	1.60×10^5 RLU	1.34×10^6 p/s/cm^2/sr
62.59 nm	0.127	-3.64 mV	95.4%	–	CCCCCCCCCCCCCCCC(CC)C(=O)OCC(COC(=O)C(CC)CCCCCCCCCCCCCCC)(COC(=O)C(CC)CCCCCCCCCCCCCCC)NC(=O)CN (stereo not drawn) [Compound 1003]	–	–
98.18 nm	0.049	-6.05 mV	97.2%	6.14	CCCCCCCCCC(CCCCCCCC)C(=O)OCC(COC(=O)C(CCCCCCCC)CCCCCCCCC)(COC(=O)C(CCCCCCCC)CCCCCCCCC)NCCCCCCN(C)CCCCO (stereo not drawn) [Compound 1120]	2.35×10^4 RLU	3.52×10^8 p/s/cm^2/sr
83.84 nm	0.046	-17.8 mV	96.6%	–	CCCCCCCCCC(CCCCCCCC)C(=O)OCC(COC(=O)C(CCCCCCCC)CCCCCCCCC)(COC(=O)C(CCCCCCCC)CCCCCCCCC)NCCCCN(C)CCCCO (stereo not drawn) [Compound 3428]	3.23×10^5 RLU	2.04×10^5 p/s/cm^2/sr
94.71 nm	0.115	-0.327 mV	88.9%	–	CCCCCCCCCCCCCCCC(CC)C(=O)OCC(COC(=O)C(CC)CCCCCCCCCCCCCCC)(COC(=O)C(CC)CCCCCCCCCCCCCCC)NCCN(C)CCCCO (stereo not drawn) [Compound 3424]	1.81×10^4 RLU	9.34×10^4 p/s/cm^2/sr
85.4 nm	0.111	3.06 mV	70.3%	–	CCCCCCCCCCCCCCCC(CC)C(=O)OCC(COC(=O)C(CC)CCCCCCCCCCCCCCC)(COC(=O)C(CC)CCCCCCCCCCCCCCC)NCCC(=O)NCCN(CCO)CCO (racemic) [Compound 1014]	2.86×10^6 RLU	3.55×10^4 p/s/cm^2/sr
102.3 nm	0.136	4.27 mV	80.3%	–	CCCCCCCCCCCCCCCC(CC)C(=O)OCC(COC(=O)C(CC)CCCCCCCCCCCCCCC)(COC(=O)C(CC)CCCCCCCCCCCCCCC)NCCC(=O)NCCN(CCCO)CCCO (stereo not drawn) [Compound 1015]	6.27×10^7 RLU	1.43×10^4 p/s/cm^2/sr

The next lines start with the molecule.

Compound	Particle Size [1]	Polydispersity Index (PDI) [1]	Zeta Potential [2]	Encapsulation Rate [3]	Apparent pKa [4]	HEK 293T Cell Luciferase Activity (HEK 293T cells)	Mouse Whole-Body Average Fluorescence Signal (female Balb/c mice)
CCCCCCCCCC(CCCCCCCC)C(=O)OCC(COC(=O)C(CCCCCCCC)CCCCCCCCC)(COC(=O)C(CCCCCCCC)CCCCCCCCC)NC(=O)CNCCN(C)CCCCO (stereo not drawn) [Compound 3423]	87.5 nm	0.086	-18.6 mV	96.0%	–	3.97×10^5 RLU	5.53×10^5 p/s/cm^2/sr
CCCCCCCCCC(CCCCCCCC)C(=O)OCC(COC(=O)C(CCCCCCCC)CCCCCCCCC)(COC(=O)C(CCCCCCCC)CCCCCCCCC)NCCC(=O)NCCN1CCNCC1 (stereo not drawn) [Compound 1111]	110.3 nm	0.103	-0.902 mV	83.2%	–	3.29×10^4 RLU	3.10×10^5 p/s/cm^2/sr
CCCCCCCCCC(CCCCCCCC)C(=O)OCC(COC(=O)C(CCCCCCCC)CCCCCCCCC)(COC(=O)C(CCCCCCCC)CCCCCCCCC)NCCC(=O)NCCN(C)CCn1cnc2c(N)ncnc21 (stereo not drawn) [Compound 1139]	74.13 nm	0.064	-7.8 mV	91.1%	–	4.23×10^5 RLU	3.87×10^5 p/s/cm^2/sr
CCCCCCCCCC(CCCCCCCC)C(=O)OCC(COC(=O)C(CCCCCCCC)CCCCCCCCC)(COC(=O)C(CCCCCCCC)CCCCCCCCC)NCCOCCN(C)C (stereo not drawn) [Compound 1059]	72.71 nm	0.067	-10.0 mV	93.0%	5.18	1.32×10^4 RLU	4.94×10^5 p/s/cm^2/sr
CCCCCCCCCCCCCCCC(CC)C(=O)OCC(COC(=O)C(CC)CCCCCCCCCCCCCCC)(COC(=O)C(CC)CCCCCCCCCCCCCCC)NCCC(=O)NCCN(C)CCNC(=N)N (stereo not drawn) [Compound 1140]	63.21 nm	0.127	4.39 mV	92.4%	–	2.13×10^4 RLU	6.21×10^4 p/s/cm^2/sr
CCCCCCCCCC(CCCCCCCC)C(=O)OCC(COC(=O)C(CCCCCCCC)CCCCCCCCC)(COC(=O)C(CCCCCCCC)CCCCCCCCC)NCCN(C)CCCCO (racemic) [Compound 3425]	82.37 nm	0.021	-21.2 mV	89.4%	–	6.86×10^6 RLU	1.56×10^7 p/s/cm^2/sr
